Calls of active or inactive are those of the source. No cut-off for these calls is given here.
Assays:
[1] = target: Transcription factor p65 (Mus musculus) (UniProt Q04207); assay: Inhibition of NF-kappaB p65 transcriptional activity in LPS/IFNgamma-stimulated mouse RAW264.7 cells at 10 uM incubated for 20 hrs followed by LPS/IFNgamma stimulation for last 4 hrs by SEAP reporter gene assay; format: cell-based
[2] = target: T1, Histone deacetylase 8 (Homo sapiens) (UniProt Q9BY41); assay: Inhibition of recombinant human C-terminal His-tagged HDAC8 up to 50 uM using Boc-Lys-(Ac)-AMC as substrate after 1 hr by fluorescence assay
T1 sequence (whole entry): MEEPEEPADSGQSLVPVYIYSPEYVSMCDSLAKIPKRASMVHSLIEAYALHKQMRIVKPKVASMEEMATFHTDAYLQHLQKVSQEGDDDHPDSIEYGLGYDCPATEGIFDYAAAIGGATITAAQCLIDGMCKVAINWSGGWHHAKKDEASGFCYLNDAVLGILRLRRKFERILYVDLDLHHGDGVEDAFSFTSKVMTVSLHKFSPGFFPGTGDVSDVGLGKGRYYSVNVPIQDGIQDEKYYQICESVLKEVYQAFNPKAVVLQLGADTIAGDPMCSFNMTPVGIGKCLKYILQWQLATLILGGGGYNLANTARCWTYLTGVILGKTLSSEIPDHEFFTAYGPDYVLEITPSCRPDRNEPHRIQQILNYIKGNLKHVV

[3] = target: Transcription factor p65 (Mus musculus) (UniProt Q04207); assay: Inhibition of NF-kappaB p65 nuclear translocation in LPS/IFNgamma-stimulated mouse RAW264.7 cells at 1 uM incubated for 20 hrs followed by LPS/IFNgamma addition measured after 1 hr by Hoechst 33342 staining based immunofluorescence microscopy; format: cell-based
[4] = test system: RAW264.7; assay: Antiinflammatory activity in LPS/IFNgamma-stimulated mouse RAW264.7 cells assessed as decrease in iNOS mRNA level at 10 uM incubated for 20 hrs followed by LPS/IFNgamma stimulation for last 4 hrs by qRT-PCR analysis; format: functional, cell-based
[5] = target: Histone deacetylase 2 (Homo sapiens) (UniProt Q92769); assay: Inhibition of recombinant human C-terminal His/flag-tagged HDAC2 at 2 to 16 uM using Boc-Lys-(Ac)-AMC as substrate in presence of Lys-C by fluorescence assay; details: TDE = time-dependent effect
Histone deacetylase 2 (Homo sapiens), sequence (Q92769 whole entry): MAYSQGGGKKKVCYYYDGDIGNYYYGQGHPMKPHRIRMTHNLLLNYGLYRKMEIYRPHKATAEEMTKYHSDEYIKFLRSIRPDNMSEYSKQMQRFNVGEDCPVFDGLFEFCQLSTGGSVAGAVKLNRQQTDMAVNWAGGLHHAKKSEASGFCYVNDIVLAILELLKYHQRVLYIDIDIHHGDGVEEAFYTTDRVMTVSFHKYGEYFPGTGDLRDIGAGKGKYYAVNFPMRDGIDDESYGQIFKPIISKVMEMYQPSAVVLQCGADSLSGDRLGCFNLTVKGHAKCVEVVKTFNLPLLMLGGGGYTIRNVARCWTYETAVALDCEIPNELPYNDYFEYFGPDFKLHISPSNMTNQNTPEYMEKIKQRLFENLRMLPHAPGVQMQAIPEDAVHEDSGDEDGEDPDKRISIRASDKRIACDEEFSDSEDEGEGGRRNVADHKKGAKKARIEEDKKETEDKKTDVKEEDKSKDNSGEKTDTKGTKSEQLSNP

[6] = target: Histone deacetylase 2 (Homo sapiens) (UniProt Q92769); assay: Inhibition of recombinant human C-terminal flag-tagged HDAC2 using Boc-Lys-(Ac)-AMC as substrate after 1 hr by fluorescence assay
[7] = target: T2, Histone deacetylase 3/Nuclear receptor corepressor 2 (HDAC3/NCoR2) (Homo sapiens) (UniProt O15379+Q9Y618); assay: Inhibition of recombinant human C-terminal His/flag-tagged HDAC3/NcoR2 at 2 to 16 uM using Boc-Lys-(Ac)-AMC as substrate in presence of Lys-C by fluorescence assay; format: protein-complex assay; details: TDE = time-dependent effect
[8] = target: Histone deacetylase 1 (Homo sapiens) (UniProt Q13547); assay: Inhibition of recombinant human C-terminal His/flag-tagged HDAC1 using Boc-Lys-(Ac)-AMC as substrate after 1 hr by fluorescence assay
Histone deacetylase 1 (Homo sapiens), sequence (Q13547 whole entry): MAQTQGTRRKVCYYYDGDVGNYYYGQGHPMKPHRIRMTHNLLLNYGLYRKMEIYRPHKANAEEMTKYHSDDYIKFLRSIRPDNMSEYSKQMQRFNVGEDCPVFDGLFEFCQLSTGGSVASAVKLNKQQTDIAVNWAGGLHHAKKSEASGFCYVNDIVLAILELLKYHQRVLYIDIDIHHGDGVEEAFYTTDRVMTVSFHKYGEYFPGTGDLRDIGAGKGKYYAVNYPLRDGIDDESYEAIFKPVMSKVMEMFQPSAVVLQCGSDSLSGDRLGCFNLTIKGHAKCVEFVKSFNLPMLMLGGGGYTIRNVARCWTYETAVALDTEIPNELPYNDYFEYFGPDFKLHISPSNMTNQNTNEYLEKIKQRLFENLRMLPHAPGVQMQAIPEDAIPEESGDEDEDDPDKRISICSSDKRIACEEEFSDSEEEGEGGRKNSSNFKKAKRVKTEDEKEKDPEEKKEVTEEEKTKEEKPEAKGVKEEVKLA

[9] = target: Histone deacetylase 2 (Homo sapiens) (UniProt Q92769); assay: Inhibition of recombinant human C-terminal His/flag-tagged HDAC2 at 2 to 16 uM using Boc-Lys-(Ac)-AMC as substrate preincubated for 1 hr followed by substrate addition in presence of Lys-C by fluorescence assay
[10] = target: Histone deacetylase 1 (Homo sapiens) (UniProt Q13547); assay: Inhibition of recombinant human C-terminal His/flag-tagged HDAC1 at 2 to 16 uM using Boc-Lys-(Ac)-AMC as substrate preincubated for 1 hr followed by substrate addition in presence of Lys-C by fluorescence assay
[11] = target: Histone deacetylase 1 (Homo sapiens) (UniProt Q13547); assay: Inhibition of recombinant human C-terminal His/flag-tagged HDAC1 at 2 to 16 uM using Boc-Lys-(Ac)-AMC as substrate in presence of Lys-C by fluorescence assay; details: TDE = time-dependent effect
[12] = target: T2, Histone deacetylase 3/Nuclear receptor corepressor 2 (HDAC3/NCoR2) (Homo sapiens); assay: Inhibition of recombinant human C-terminal His/flag-tagged HDAC3/NcoR2 at 2 to 16 uM using Boc-Lys-(Ac)-AMC as substrate preincubated for 1 hr followed by substrate addition in presence of Lys-C by fluorescence assay; format: protein-complex assay
[13] = target: T2, Histone deacetylase 3/Nuclear receptor corepressor 2 (HDAC3/NCoR2) (Homo sapiens); assay: Inhibition of recombinant human C-terminal His-tagged HDAC3/NcoR2 using Boc-Lys-(Ac)-AMC as substrate after 1 hr by fluorescence assay; format: protein-complex assay
[14] = test system: RAW264.7; assay: Cytotoxicity against LPS/IFNgamma-stimulated mouse RAW264.7 cells assessed as decrease in cell viability incubated for 16 hrs followed by LPS/IFNgamma stimulation for last 4 hrs by MTS assay; format: cell-based; details: raw264.7, 16 h
[15] = test system: RAW264.7; assay: Antiinflammatory activity in LPS/IFNgamma-stimulated mouse RAW264.7 cells assessed as decrease in IL-12b mRNA level at 1 to 10 uM incubated for 20 hrs followed by LPS/IFNgamma stimulation for last 4 hrs by qRT-PCR analysis; format: functional, cell-based
[16] = test system: RAW264.7; assay: Antiinflammatory activity in LPS/IFNgamma-stimulated mouse RAW264.7 cells assessed as decrease in TNFalpha mRNA level incubated for 20 hrs followed by LPS/IFNgamma stimulation for last 4 hrs by qRT-PCR analysis; format: functional, cell-based
[17] = test system: RAW264.7; assay: Antiinflammatory activity in LPS/IFNgamma-stimulated mouse RAW264.7 cells assessed as decrease in IL-6 mRNA level incubated for 20 hrs followed by LPS/IFNgamma stimulation for last 4 hrs by qRT-PCR analysis; format: functional, cell-based
[18] = test system: RAW264.7; assay: Antiinflammatory activity in LPS/IFNgamma-stimulated mouse RAW264.7 cells assessed as decrease in IL-1beta mRNA level at 1 to 10 uM incubated for 20 hrs followed by LPS/IFNgamma stimulation for last 4 hrs by qRT-PCR analysis; format: functional, cell-based
[19] = test system: RAW264.7; assay: Antiinflammatory activity in LPS/IFNgamma-stimulated mouse RAW264.7 cells assessed as decrease in IL-6 mRNA level at 10 uM incubated for 20 hrs followed by LPS/IFNgamma stimulation for last 4 hrs by qRT-PCR analysis; format: functional; set-up: scale not given: the % may be the effect or the level left
[20] = target: Transcription factor p65 (Mus musculus) (UniProt Q04207); assay: Inhibition of NF-kappaB p65 transcriptional activity in LPS/IFNgamma-stimulated mouse RAW264.7 cells at 1 to 5 uM incubated for 20 hrs followed by LPS/IFNgamma stimulation for last 4 hrs by SEAP reporter gene assay; format: cell-based

Transcription factor p65 (Mus musculus), sequence (Q04207 whole entry): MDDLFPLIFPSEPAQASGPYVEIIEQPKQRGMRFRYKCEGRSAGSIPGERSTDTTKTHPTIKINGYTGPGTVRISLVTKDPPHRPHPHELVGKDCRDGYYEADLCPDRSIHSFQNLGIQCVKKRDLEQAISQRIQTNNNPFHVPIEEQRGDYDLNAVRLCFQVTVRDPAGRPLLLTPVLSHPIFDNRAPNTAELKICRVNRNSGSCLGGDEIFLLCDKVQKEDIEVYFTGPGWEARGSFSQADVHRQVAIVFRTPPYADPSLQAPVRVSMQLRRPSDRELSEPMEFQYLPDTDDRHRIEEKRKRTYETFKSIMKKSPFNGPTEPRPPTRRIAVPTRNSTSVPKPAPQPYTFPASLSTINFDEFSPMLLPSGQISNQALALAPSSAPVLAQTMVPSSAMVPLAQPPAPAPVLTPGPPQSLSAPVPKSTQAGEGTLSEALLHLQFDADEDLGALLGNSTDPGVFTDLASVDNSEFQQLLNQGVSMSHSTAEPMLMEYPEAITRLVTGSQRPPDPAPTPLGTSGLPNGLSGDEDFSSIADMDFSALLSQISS

Row | inhibition [1] | inhibition [2] | inhibition [3] | inhibition [5] | inhibition [6] | inhibition [7] | inhibition [8] | inhibition [9] | inhibition [10] | inhibition [11] | inhibition [12] | inhibition [13] | inhibition [20] | SMILES | Activity [4] | Activity [14] | Activity [15] | Activity [16] | Activity [17] | Activity [18] | Activity [19] [%]
1 | < 50% | inactive | Active | Tde | Active | Tde | Active | Active | Active | Tde | Active | Active |  | CC(C)(C)OC(=O)Nc1ccccc1NC(=O)c1ccc(CNc2ccccc2/N=N/c2ccccc2)cc1 | inactive | Non-Toxic |  |  |  |  | 
2 | < 50% |  | Active | Tde | Active | Tde | Active | Active | Active | Tde | Active | Active |  | Nc1ccccc1NC(=O)c1ccc(CNc2ccc(/N=N/c3ccccc3)cc2)cc1 | Active | Non-Toxic | Active | Dose-dependent effect | Dose-dependent effect | Active | 90
3 | inactive |  | inactive | Tde | Active | Tde | Active | Active | Active | Tde | Active | Active | inactive | Nc1ccccc1NC(=O)c1ccc(CNc2cccc(/N=N/c3ccccc3)c2)cc1 | inactive | Non-Toxic |  |  |  |  | 
4 |  | inactive |  |  |  |  |  |  |  |  |  |  |  | Nc1ccccc1NC(=O)c1ccc(CNc2ccccc2/N=N/c2ccccc2)cc1 |  |  |  |  |  |  | 

— ChEMBL document CHEMBL4190172 (Medchemcomm, 2016)
